Values quoted from earlier work as cited in PubChem BioAssay AID1259409 (Chemical Carcinogenesis Research Information System (CCRIS), 2018).

System: rodent chemically induced tumor inhibition, incidence and multiplicity
Experiment: CCRIS tumor inhibitor studies

SMILES: O=c1oc2c(O)c(O)cc3c(=O)oc4c(O)c(O)cc1c4c23
- tumour outcome (control, treated, inhibition, significance) (Carcinogen: 7,12-DIMETHYLBENZ[A]ANTHRACENE, 57-97-6, Dose [Inhibitor]: 0, 2000 PPM IN DIET FROM 1 WK PRIOR TO CARCINOGEN TREATMENT TO 3 D POST CARCINOGEN TREATMENT (STUDY DURATION: 42 WK), Route [Inhibitor]: ORAL, Species: FISH, Strain/Sex: RAINBOW TROUT/ MALE, FEMALE, Target Tissue: Type of Lesion: STOMACH: TUMOR, Dose [Carcinogen]: 5.5 PPM IN WATER FOR 1 HR, Promoter: NONE USED): 88%, 78%, 11%, p<0.05
- tumour outcome (control, treated, inhibition, significance) (Carcinogen: 7,12-DIMETHYLBENZ[A]ANTHRACENE, 57-97-6, Dose [Inhibitor]: 0, 2000 PPM IN DIET FROM 3 WK PRIOR TO CARCINOGEN TREATMENT TO 3 D POST CARCINOGEN TREATMENT (STUDY DURATION: 42 WK), Route [Inhibitor]: ORAL, Species: FISH, Strain/Sex: RAINBOW TROUT/ MALE, FEMALE, Target Tissue: Type of Lesion: LIVER: TUMOR, Dose [Carcinogen]: 4.16 PPM IN WATER FOR 1 HR, Promoter: NONE USED): 7%, 22%, -214%, p<0.001
- tumour outcome (control, treated, inhibition, significance) (Carcinogen: 7,12-DIMETHYLBENZ[A]ANTHRACENE, 57-97-6, Dose [Inhibitor]: 0, 2000 PPM IN DIET FROM 3 WK PRIOR TO CARCINOGEN TREATMENT TO 3 D POST CARCINOGEN TREATMENT (STUDY DURATION: 42 WK), Route [Inhibitor]: ORAL, Species: FISH, Strain/Sex: RAINBOW TROUT/ MALE, FEMALE, Target Tissue: Type of Lesion: SWIM BLADDER: TUMOR, Dose [Carcinogen]: 4.16 PPM IN WATER FOR 1 HR, Promoter: NONE USED): 14%, 61%, -336%, p<0.001
- tumour outcome (control, treated, inhibition, significance) (Carcinogen: 7,12-DIMETHYLBENZ[A]ANTHRACENE, 57-97-6, Dose [Inhibitor]: O, 2000 PPM IN DIET FROM 3 WK PRIOR TO CARCINOGEN TREATMENT TO 3D POST CARCINOGEN TREATMENT (STUDY DURATION: 42 WK), Route [Inhibitor]: ORAL, Species: FISH, Strain/Sex: RAINBOW TROUT/ MALE, FEMALE, Target Tissue: Type of Lesion: STOMACH: TUMOR, Dose [Carcinogen]: 4.16 PPM IN WATER FOR 1 HR, Promoter: NONE USED): 97%, 94%, 3%, not significant
- tumour outcome (control, treated, inhibition, significance) (Carcinogen: (+/-)-1BETA,2ALPHA-DIHYDROXY-3ALPHA,4ALPHA-EPOXY-1,2,3,4-TETRAHYDROBENZO[A]PYRE NE, 78919-11-6, Dose [Inhibitor]: 0, 300 NMOL (TOTAL DOSE) APPLIED 10 MIN PRIOR TO CARCINOGEN DOSE INJECTED AS 1/7, 2/7, AND 4/7 OF THE TOTAL ON DAYS 1, 8, Route [Inhibitor]: INTRAPERITONEAL, Species: MOUSE, Strain/Sex: ICR/MALE, FEMALE, Target Tissue: Type of Lesion: LUNG: TUMOR, Dose [Carcinogen]: 50 NMOL (TOTAL DOSE) INJECTED IN DOSES OF 1/7, 2/7, AND 4/7 ON DAYS 1, 8, AND 15 OF LIFE, RESPECTIVELY, Promoter: NONE USED): 93%, 86%, 8%, not significant
- tumour outcome (control, treated, inhibition, significance) (Carcinogen: (+/-)-7BETA,8ALPHA-DIHYDROXY-9ALPHA,10ALPHA-EPOXY-7,8,9,10-TETRAHYDROBENZO[A]PYR ENE, 58917-67-2, Dose [Inhibitor]: 0, 300 NMOL (TOTAL DOSE) APPLIED 10 MIN PRIOR TO CARCINOGEN DOSE INJECTED AS 1/7, 2/7, AND 4/7 OF THE TOTAL ON DAYS 1, 8, Route [Inhibitor]: INTRAPERITONEAL, Species: MOUSE, Strain/Sex: ICR/MALE, FEMALE, Target Tissue: Type of Lesion: LUNG: TUMOR, Dose [Carcinogen]: 15 NMOL (TOTAL DOSE) INJECTED IN DOSES OF 1/7, 2/7, AND 4/7 ON DAYS 1, 8, AND 15 OF LIFE, RESPECTIVELY, Promoter: NONE USED): 86%, 76%, 12%, not significant
- tumour outcome (control, treated, inhibition, significance) (Carcinogen: (+/-)-7BETA,8ALPHA-DIHYDROXY-9ALPHA,10ALPHA-EPOXY-7,8,9,10-TETRAHYDROBENZO[A]PYR ENE, 58917-67-2, Dose [Inhibitor]: 0, 1250 NMOL IN 200 µL ACETONE:METHANOL (45:55) ONCE APPLIED 5 MIN PRIOR TO CARCINOGEN DOSE (STUDY DURATION: 21 WK), Route [Inhibitor]: DERMAL, Species: MOUSE, Strain/Sex: CD-1/FEMALE, Target Tissue: Type of Lesion: SKIN: TUMOR, Dose [Carcinogen]: 200 NMOL IN ACETONE:DMSO (90:10) ONCE, Promoter: 12-O-TETRADECANOYLPHORBOL-13-ACETATE, 16561-29-8): 62%, 50%, 19%, not significant
- tumour outcome (control, treated, inhibition, significance) (Carcinogen: (+/-)-7BETA,8ALPHA-DIHYDROXY-9ALPHA,10ALPHA-EPOXY-7,8,9,10-TETRAHYDROBENZO[A]PYR ENE, 58917-67-2, Dose [Inhibitor]: 0, 2500 NMOL IN 200 µL ACETONE:METHANOL (45:55) ONCE APPLIED 5 MIN PRIOR TO CARCINOGEN DOSE (STUDY DURATION: 21 WK), Route [Inhibitor]: DERMAL, Species: MOUSE, Strain/Sex: CD-1/FEMALE, Target Tissue: Type of Lesion: SKIN: TUMOR, Dose [Carcinogen]: 200 NMOL IN ACETONE:DMSO (90:10) ONCE, Promoter: 12-O-TETRADECANOYLPHORBOL-13-ACETATE, 16561-29-8): 62%, 43%, 31%, not significant
- tumour outcome (control, treated, inhibition, significance) (Carcinogen: (+/-)-7BETA,8ALPHA-DIHYDROXY-9ALPHA,10ALPHA-EPOXY-7,8,9,10-TETRAHYDROBENZO[A]PYR ENE, 58917-67-2, Dose [Inhibitor]: 0, 2500 NMOL IN 200 µL ACETONE:METHANOL (45:55) ONCE APPLIED 30 MIN PRIOR TO CARCINOGEN DOSE (STUDY DURATION: 21 WK), Route [Inhibitor]: DERMAL, Species: MOUSE, Strain/Sex: CD-1/FEMALE, Target Tissue: Type of Lesion: SKIN: TUMOR, Dose [Carcinogen]: 200 NMOL IN ACETONE:DMSO (90:10) ONCE, Promoter: 12-O-TETRADECANOYLPHORBOL-13-ACETATE, 16561-29-8): 53%, 33%, 38%, not significant
- tumour outcome (control, treated, inhibition, significance) (Carcinogen: (+/-)-7BETA,8ALPHA-DIHYDROXY-9ALPHA,10ALPHA-EPOXY-7,8,9,10-TETRAHYDROBENZO[A]PYR ENE, 58917-67-2, Dose [Inhibitor]: 0, 2500 NMOL IN 200 µL ACETONE:METHANOL (45:55) ONCE APPLIED 120 MIN PRIOR TO CARCINOGEN DOSE (STUDY DURATION: 21 WK), Route [Inhibitor]: DERMAL, Species: MOUSE, Strain/Sex: CD-1/FEMALE, Target Tissue: Type of Lesion: SKIN: TUMOR, Dose [Carcinogen]: 200 NMOL IN ACETONE:DMSO (90:10) ONCE, Promoter: 12-O-TETRADECANOYLPHORBOL-13-ACETATE, 16561-29-8): 63%, 43%, 32%, not significant
- tumour outcome (control, treated, inhibition, significance) (Carcinogen: AZOXYMETHANE, 25843-45-2, Dose [Inhibitor]: 0, 4000 PPM IN DIET BEGINNING PRIOR TO CARCINOGEN DOSE AND CONTINUING FOR DURATION OF STUDY (STUDY DURATION: 54 WK), Route [Inhibitor]: ORAL, Species: RAT, Strain/Sex: F344/MALE, Target Tissue: Type of Lesion: COLON: ADENOCARCINOMA, Dose [Carcinogen]: 15 MG/KG 1/WK FOR 2 WK, Promoter: NONE USED): 72%, 64%, 11%, not calculated
- tumour outcome (control, treated, inhibition, significance) (Carcinogen: AZOXYMETHANE, 25843-45-2, Dose [Inhibitor]: 0, 4000 PPM IN DIET BEGINNING PRIOR TO CARCINOGEN DOSE AND CONTINUING FOR DURATION OF STUDY (STUDY DURATION: 54 WK), Route [Inhibitor]: ORAL, Species: RAT, Strain/Sex: F344/MALE, Target Tissue: Type of Lesion: COLON: ADENOMA, Dose [Carcinogen]: 15 MG/KG 1/WK FOR 2 WK, Promoter: NONE USED): 14%, 8%, 43%, not calculated
